US10143668B2, “Hydroxy-substituted amino and ammonium derivatives and their medical use” (GRI BIO, INC., priority 2011, dated 2018)
Read-outs that look alike come from different tables or passages of the source.

Experiments:
[1] = tested on: RBL-2H3 cells; experiment: Maximum tolerated concentration (cytotoxicity by lactate dehydrogenase release); assay type: cell-based, rat
Source text: The safety index (SI) of a test compound is the ratio between the maximum tolerated concentration and the IC50 and is used as a measure of the relative safety of the test compound.

[2] = tested on: DTH response in mice; assay type: in vivo; details: for Inhibition of mouse ear swelling: 24 h after challenge
Procedure: The anti-inflammatory and anti-allergic effects of compound 1a was assessed in a mouse model of skin delayed-type hypersensitivity (DTH) reactions and compared to a vehicle control and to the reference drug, dexamethasone. DTH reactions are antigen-specific cell-mediated immune responses, driven primarily by T helper type 1 (Th1) cells, similar to the tuberculin immunization response. The immune reaction induced by an ovalbumin challenge to animals previously sensitized with ovalbumin in Complete Freund's Adjuvant, is characterized by swelling (edema) at the site of challenge, e.g. the mouse ear. Dexamethasone, an anti-inflammatory steroid, reduces cell-mediated immune responses and was employed to validate the responsiveness of the assay to pharmacological treatment.
Female BALB/cJW mice were bred at the University of Lodz, Lodz, Poland and housed in groups of 8 in makrolon cages with a 12 h light-dark cycle. Mice were given free access to food (Agropol S. j., Motycz, Poland) and water.
Sensitization: The protein antigen, ovalbumin, was reconstituted in PBS at 4 mg/ml. An ovalbumin-CFA emulsion was prepared by mixing the protein solution with the CFA suspension at a ratio of 1:1, using two Luer-lock syringes. The emulsion was tested by putting a drop of emulsion onto PBS; if the emulsion remained as a tight droplet on the PBS, the emulsion was deemed ready. Mice were sensitized by subcutaneously injecting 25 μL of emulsion into each side of the tail (100 μg ovalbumin per mouse).
Challenge: On the sixth day after sensitization, DTH was elicited by challenging animals subcutaneously (gauge 30 needle, B. Braun Melsungen, Melsungen, Germany) in the left ears with 10 μL of a 1% suspension of heat-aggregated ovalbumin (HOVA) (100 μg ovalbumin per mouse). The right ears were administered subcutaneously with PBS and served to determine the individual differences in ear thicknesses. HOVA was prepared by heating a 5% solution of ovalbumin in saline for 1 h at 80° C. with occasional swirling. After cooling to room temperature and centrifugation (400 g, 10 min at 4° C.), the pellet was washed twice with saline, resuspended at 2% in PBS and aliquots stored at −30° C. Before injection, HOVA was diluted with an equal volume of PBS and sonicated. Ear thickness was measured with a precise spring-loaded caliper (Art. No. 7309, Mitutoyo, Kawasaki, Japan) before challenge, and 24 h after challenge.
Sensitization, challenge and ear thickness measurement were performed under anesthesia (ketamine 80 mg/kg plus xylazine 8 mg/kg, intraperitoneally).
The anti-inflammatory effects of compound 1a were compared to a vehicle control (0.5% methyl cellulose solution) and to the reference drug, dexamethasone. Test compound was given at 25 or 100 mg/kg orally by gavage (Art. No. 432093, Harvard Apparatus GmbH, March-Hugstetten, Germany) 16 h and 3 h before sensitization and then twice daily with the final dose given 3 h prior to ear challenge (a total of 14 administrations). Dexamethasone was given at 0.1 or 1 mg/kg orally by gavage 3 h before sensitization and once daily with the final dose given 3 h prior to antigen challenge (a total of 7 administrations). All administrations were given in a volume of 10 mL/kg.
To account for individual variability, the increase in right ear thickness, before and 24 h after administration of PBS, was subtracted from the HOVA-induced increase in left ear thickness. […]
Mean and standard deviation (SD) were calculated from individual ear edema values. […]

[3] = tested on: local lymph node reaction; experiment: Local lymph node weight and cell count after TDI challenge; details: topical, diflorasone 0.1% and 0.5%, 1a 2% or 6%
Procedure: Directly after sacrifice, the ear draining lymph node (Ln. auricularis) was prepared and excised. Organ weight was determined by means of an analytical balance (Kern, Balingen, Germany). Single cell suspensions were prepared by means of a glass potter (VWR, Darmstadt, Germany) and cells were counted with a hemocytometer (Neubauer, VWR, Germany).
One of the most undesirable side-effects of corticosteroid administration is immunosuppression, which leads to the inability to effectively address parasitic infection, wound healing and tumor growth. In the current study, the local lymph node reaction after TDI challenge (lymph node weight and cell number) was determined to assess the response of immune organs.

## CCCCCCCCCCCCCC[N+](C)(C)CC(=O)N(C)C[C@H](O)[C@@H](O)[C@H](O)[C@H](O)CO [Compound 1a, N-(2-(Dimethyl(tetradecyl)ammonio)acetyl)-N-methyl-D-glucamine chloride]
[1]; highest concentration not causing cytotoxicity (LDH release)
  MTC (maximum tolerated concentration): 150 µM
[1]; ratio between MTC and IC50
  SI (safety index): 39.5
[2]; 25 mg/kg orally twice daily
  Inhibition of mouse ear swelling: 43%
[2]; 100 mg/kg orally twice daily
  Inhibition of mouse ear swelling: 50%
[2]; 25 or 100 mg/kg orally twice daily vs dexamethasone 1 mg/kg
  inhibition relative to that of the high dose of dexamethasone: up to 94%
[3]
  local lymph node reaction (lymph node weight and cell number): only a modest effect
